Reference: patent publication US20140357662A1, “THIENO (2,3 - C) PYRAZOLES FOR USE AS POTASSIUM CHANNEL INHIBITORS” (XENTION LIMITED, priority 2011, published 2014)

Biological target: T1, rat Kir3.1/3.4 (Rattus norvegicus, UniProt P48548+P63251)
T1 construct: expressed in transfected cells; host or cells: HEK293 (Human Embryonic Kidney 293), stably transfected
T1 sequence (P63251 1-501): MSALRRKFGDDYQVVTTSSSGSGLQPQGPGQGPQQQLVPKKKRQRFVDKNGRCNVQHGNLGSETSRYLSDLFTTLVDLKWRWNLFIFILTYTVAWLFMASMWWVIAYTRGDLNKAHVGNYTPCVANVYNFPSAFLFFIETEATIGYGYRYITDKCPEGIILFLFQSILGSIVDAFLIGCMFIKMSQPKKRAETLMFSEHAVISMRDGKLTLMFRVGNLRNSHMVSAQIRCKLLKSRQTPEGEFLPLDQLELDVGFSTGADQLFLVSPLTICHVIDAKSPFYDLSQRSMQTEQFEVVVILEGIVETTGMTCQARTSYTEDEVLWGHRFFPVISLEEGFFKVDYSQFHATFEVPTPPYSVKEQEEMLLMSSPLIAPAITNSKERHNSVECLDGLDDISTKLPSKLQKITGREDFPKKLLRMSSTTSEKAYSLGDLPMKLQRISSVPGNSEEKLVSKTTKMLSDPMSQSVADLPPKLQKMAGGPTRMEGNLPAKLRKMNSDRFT
T1 sequence (P48548 1-419): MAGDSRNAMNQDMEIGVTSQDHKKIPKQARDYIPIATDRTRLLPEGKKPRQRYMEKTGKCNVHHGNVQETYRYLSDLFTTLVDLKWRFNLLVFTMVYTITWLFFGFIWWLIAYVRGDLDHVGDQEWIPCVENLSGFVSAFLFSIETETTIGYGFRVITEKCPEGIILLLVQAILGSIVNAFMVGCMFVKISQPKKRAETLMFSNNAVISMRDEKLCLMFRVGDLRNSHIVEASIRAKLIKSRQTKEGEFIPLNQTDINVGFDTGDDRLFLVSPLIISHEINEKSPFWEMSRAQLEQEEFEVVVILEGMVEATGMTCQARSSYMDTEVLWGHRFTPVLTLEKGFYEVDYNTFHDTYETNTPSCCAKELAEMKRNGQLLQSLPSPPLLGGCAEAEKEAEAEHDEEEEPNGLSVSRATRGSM
Assay: Kir3.1/3.4 Electrophysiology Method (manual whole-cell patch clamp)
Assay type: cell-based
Conditions: Human Embryonic Kidney 293 stably transfected with rat Kir3.1/3.4; inhibition of leak-subtracted current at -140 mV
Protocol: Compound activity against the recombinant G-protein activated inward rectifier current encoded by the heterotetramer Kir3.1/3.4 was assessed using manual whole-cell patch technique. The heterotetramer forms the pore-forming channel that conducts the acetylcholine/adenosine-activated potassium current in the heart.
For whole-cell patch-clamp studies, cells (Human Embryonic Kidney 293 stably transfected with rat Kir3.1/3.4) were seeded onto glass coverslips before recordings were made. Cells were seeded in sterile 30 mm Petri dishes at a density to enable isolated cells to be selected for patch clamp experiments. The dishes were stored in a humidified, gassed (5% CO2) incubator at 37° C. until use.
Whole-cell patch-clamp recordings of membrane currents were made following gigaohm seal formation between the patch electrode and the cell using HEKA EPC-9/10 amplifiers controlled by Pulse Software (Ver8.5x/8.6x/8.7x, HEKA, Germany). Coverslips seeded with cells were placed in a recording chamber mounted on the stage of an inverted microscope. During the experiment, the cell of interest was continuously superfused with bather solution delivered via a cannula placed in close proximity to the cell to enable control of the extracellular solution environment. Only those cells with a current <−500 pA (current at −140 mV) were used for experiments. During experiments, series resistance was compensated by a minimum of 70%.
Electrophysiology voltage-step protocols and analysis of data were performed as follows. Data was sampled at 5 kHz, and filtered with a −3 dB bandwidth of 2.5 kHz. Cells were held at a voltage of −60 mV. Currents were evoked by a depolarising voltage step to +60 mV (100 ms) before a ramp-repolarisation (0.4 V·s^−1) to −140 mV (100 ms) before returning to −60 mV. The command waveform was repeatedly applied every 10 s throughout the experiment. Mean currents during 1-99% of the time at −140 mV were analysed using Pulsefit software (v8.x, HEKA, Germany). The voltage protocol was repeatedly applied to achieve a stable current baseline in bather before the test substance was superfused via the cannula in close proximity to the cell under investigation. The test substance was allowed to equilibrate during which time voltage protocol was repeatedly applied and recorded. On reaching steady-state inhibition, the cell was superfused with an identical bather solution containing zero external potassium chloride (replaced by equimolar NaCl). The identical current measurement was made in the absence of potassium to assess the passive leak at −140 mV. The leak current was subtracted from the control and steady-state drug current values. The percentage inhibition of the leak-subtracted current in the presence of test substance was calculated relative to the control leak-subtracted pre-drug value. Internal patch-pipette solution contained in mM: 110 KCl, 20 NaCl, 0.9 GTPγS, 5 Mg-ATP, 5 EGTA, 10 HEPES, pH7.2 corrected with KOH. The external superfusate composition in mM was: 150 (or 160) NaCl, 10 (or 0) KCl, 3 CaCl2, 1 MgCl, 10 HEPES, pH 7.4 corrected with NaOH.

IC50: < 500 nM
SMILES: CNC(=O)c1sc2[nH]nc(N3CCC(COCCN4CCCC4)CC3)c2c1-c1ccccc1 [Compound 25, N-methyl-4-phenyl-3-[4-(2-pyrrolidin-1-ylethoxymethyl)-1-piperidyl]-1H-thieno[2,3-c]pyrazole-5-carboxamide]
